Test results: paper PMC7026418, “The kinase polypharmacology landscape of clinical PARP inhibitors” (Scientific Reports, 2020)
Where two headings read alike, the source gives them in different places. Each block holds one molecule with its values, some of them ahead of it.

What was measured:
Experiment in all cases: biochemical
Parameters in all cases: DiscoveRx KINOMEscan active site-directed competition binding; percent of control kinase bound to immobilised ligand
MKK7 = target: T1, MKK7 (Homo sapiens, UniProt O14733)
T1 construct: gene MAP2K7
T1 sequence (O14733 1-419): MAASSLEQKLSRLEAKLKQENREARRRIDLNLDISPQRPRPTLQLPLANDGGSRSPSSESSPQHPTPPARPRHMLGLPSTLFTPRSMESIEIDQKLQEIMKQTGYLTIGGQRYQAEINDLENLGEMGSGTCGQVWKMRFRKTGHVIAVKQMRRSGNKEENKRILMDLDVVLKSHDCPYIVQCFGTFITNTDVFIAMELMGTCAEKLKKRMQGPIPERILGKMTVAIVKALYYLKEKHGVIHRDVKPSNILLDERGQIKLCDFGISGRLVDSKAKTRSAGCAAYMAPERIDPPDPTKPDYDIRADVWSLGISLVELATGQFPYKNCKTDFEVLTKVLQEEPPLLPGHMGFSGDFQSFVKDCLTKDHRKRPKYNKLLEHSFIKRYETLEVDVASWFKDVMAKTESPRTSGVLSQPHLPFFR

BRSK2 = target: T2, BRSK2 (Homo sapiens, UniProt Q8IWQ3)
T2 sequence (Q8IWQ3 1-736): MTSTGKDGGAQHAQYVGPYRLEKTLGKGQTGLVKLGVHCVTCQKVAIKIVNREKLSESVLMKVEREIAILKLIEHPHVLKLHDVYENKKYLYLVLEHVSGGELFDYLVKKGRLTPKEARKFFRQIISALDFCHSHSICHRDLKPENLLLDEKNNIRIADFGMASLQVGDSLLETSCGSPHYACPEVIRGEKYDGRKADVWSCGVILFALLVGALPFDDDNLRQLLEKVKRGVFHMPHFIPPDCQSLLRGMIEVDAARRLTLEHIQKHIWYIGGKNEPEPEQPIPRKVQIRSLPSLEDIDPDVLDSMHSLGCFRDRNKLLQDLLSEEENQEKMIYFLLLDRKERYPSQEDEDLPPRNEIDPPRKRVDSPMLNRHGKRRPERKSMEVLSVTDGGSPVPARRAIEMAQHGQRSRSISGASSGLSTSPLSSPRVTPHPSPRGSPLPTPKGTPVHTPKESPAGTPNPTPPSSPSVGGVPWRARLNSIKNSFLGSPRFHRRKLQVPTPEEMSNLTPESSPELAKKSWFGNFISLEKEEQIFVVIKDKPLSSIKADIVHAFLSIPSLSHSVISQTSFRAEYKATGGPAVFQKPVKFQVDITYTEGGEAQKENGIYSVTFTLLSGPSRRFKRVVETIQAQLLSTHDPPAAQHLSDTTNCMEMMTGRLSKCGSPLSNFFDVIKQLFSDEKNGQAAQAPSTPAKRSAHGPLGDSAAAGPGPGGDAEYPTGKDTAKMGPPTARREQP

TNNI3K = target: T3, TNNI3K (Homo sapiens, UniProt Q59H18)
T3 sequence (Q59H18 1-835): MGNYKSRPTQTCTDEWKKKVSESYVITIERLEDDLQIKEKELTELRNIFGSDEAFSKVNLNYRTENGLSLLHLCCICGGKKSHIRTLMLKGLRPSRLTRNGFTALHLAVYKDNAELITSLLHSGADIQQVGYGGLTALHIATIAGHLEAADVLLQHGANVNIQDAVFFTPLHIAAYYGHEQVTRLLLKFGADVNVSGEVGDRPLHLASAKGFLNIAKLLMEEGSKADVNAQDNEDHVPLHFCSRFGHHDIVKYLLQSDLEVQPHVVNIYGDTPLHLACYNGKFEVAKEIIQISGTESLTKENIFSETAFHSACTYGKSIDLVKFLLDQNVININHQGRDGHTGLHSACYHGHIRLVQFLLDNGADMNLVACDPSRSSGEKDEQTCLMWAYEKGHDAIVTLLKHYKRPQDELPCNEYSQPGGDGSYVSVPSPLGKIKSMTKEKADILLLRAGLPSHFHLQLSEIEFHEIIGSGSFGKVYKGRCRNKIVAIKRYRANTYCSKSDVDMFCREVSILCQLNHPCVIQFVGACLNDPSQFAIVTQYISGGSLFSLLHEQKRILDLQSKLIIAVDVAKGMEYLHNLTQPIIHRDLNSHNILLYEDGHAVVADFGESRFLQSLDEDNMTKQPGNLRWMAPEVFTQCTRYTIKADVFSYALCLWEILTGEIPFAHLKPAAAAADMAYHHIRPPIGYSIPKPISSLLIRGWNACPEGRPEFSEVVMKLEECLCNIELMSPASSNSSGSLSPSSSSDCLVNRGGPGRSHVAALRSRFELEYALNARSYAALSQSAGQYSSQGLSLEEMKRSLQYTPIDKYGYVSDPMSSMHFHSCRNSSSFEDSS

[1] = read-out: Niraparib (MK-4827) / %Ctrl @ 10000nM
[2] = read-out: Olaparib / %Ctrl @ 10000nM
[3] = read-out: Rucaparib / %Ctrl @ 10000nM, binding competition, % of control
[4] = read-out: Talazoparib (BMN 673) / %Ctrl @ 10000nM

SMILES: NC(=O)c1cccc2cn(-c3ccc([C@@H]4CCCNC4)cc3)nc12 [Niraparib]
percent of control binding at 10 µM (MKK7; [1]): 100%
percent of control binding at 10 µM (BRSK2; [1]): 91%
percent of control binding at 10 µM (TNNI3K; [1]): 95%

percent of control binding at 10 µM (MKK7; [2]): 98%
percent of control binding at 10 µM (BRSK2; [2]): 95%
percent of control binding at 10 µM (TNNI3K; [2]): 84%
SMILES: O=C(c1cc(Cc2n[nH]c(=O)c3ccccc23)ccc1F)N1CCN(C(=O)C2CC2)CC1 [Olaparib]

percent of control binding at 10 µM (MKK7; [3]): 100%
percent of control binding at 10 µM (BRSK2; [3]): 76%
percent of control binding at 10 µM (TNNI3K; [3]): 92%
SMILES: CNCc1ccc(-c2[nH]c3cc(F)cc4c3c2CCNC4=O)cc1 [Rucaparib]

percent of control binding at 10 µM (MKK7; [4]): 100%
percent of control binding at 10 µM (BRSK2; [4]): 63%
percent of control binding at 10 µM (TNNI3K; [4]): 100%
SMILES: Cn1ncnc1[C@H]1c2n[nH]c(=O)c3cc(F)cc(c23)N[C@@H]1c1ccc(F)cc1 [Talazoparib]
